According to ChEMBL document CHEMBL5291721, “A preclinical secondary pharmacology resource illuminates target-adverse drug reaction associations of marketed drugs” (Nat Commun, 2023):

Tests used:
[1] = biological target: Histamine H1 receptor (Homo sapiens, UniProt P35367)
[2] = biological target: T1, Glucocorticoid receptor (Homo sapiens, UniProt P04150); assay type: functional
T1 sequence (P04150 whole entry): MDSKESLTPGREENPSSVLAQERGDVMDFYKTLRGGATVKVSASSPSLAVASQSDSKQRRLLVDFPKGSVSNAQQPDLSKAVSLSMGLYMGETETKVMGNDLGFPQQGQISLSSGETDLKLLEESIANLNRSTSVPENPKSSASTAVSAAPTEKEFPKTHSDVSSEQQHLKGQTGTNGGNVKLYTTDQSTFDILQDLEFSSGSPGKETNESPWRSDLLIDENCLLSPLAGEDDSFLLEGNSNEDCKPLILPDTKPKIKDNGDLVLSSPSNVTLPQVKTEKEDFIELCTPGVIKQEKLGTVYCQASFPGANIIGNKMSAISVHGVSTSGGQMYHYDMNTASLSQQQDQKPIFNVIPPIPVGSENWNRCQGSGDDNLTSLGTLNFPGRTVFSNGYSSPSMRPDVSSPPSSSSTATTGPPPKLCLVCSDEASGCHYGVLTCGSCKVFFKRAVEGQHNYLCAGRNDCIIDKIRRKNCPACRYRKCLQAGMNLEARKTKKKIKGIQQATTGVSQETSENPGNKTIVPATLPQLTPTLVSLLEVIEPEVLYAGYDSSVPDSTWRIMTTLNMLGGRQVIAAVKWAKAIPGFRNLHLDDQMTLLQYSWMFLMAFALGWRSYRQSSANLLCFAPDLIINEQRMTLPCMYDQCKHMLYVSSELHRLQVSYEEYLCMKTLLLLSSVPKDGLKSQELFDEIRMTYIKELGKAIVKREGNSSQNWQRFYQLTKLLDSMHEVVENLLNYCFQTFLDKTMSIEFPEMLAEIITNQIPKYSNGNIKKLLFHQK

[3] = biological target: Sodium-dependent serotonin transporter (Homo sapiens, UniProt P31645)
[4] = biological target: T2, Alpha-1A adrenergic receptor (Homo sapiens, UniProt P35348)
T2 sequence (P35348 whole entry): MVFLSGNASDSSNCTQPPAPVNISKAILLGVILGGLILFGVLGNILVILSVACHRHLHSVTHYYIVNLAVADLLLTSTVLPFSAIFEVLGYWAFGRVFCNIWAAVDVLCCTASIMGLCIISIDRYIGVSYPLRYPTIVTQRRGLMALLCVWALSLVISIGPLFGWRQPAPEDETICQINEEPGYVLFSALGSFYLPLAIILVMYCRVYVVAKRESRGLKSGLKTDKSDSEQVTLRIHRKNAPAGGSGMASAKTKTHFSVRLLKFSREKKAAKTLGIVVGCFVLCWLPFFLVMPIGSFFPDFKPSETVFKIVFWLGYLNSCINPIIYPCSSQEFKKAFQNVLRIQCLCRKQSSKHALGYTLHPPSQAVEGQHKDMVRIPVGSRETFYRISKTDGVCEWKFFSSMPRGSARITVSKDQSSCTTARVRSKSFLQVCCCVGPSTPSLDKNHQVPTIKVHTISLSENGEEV

[5] = biological target: Beta-3 adrenergic receptor (Homo sapiens, UniProt P13945)
[6] = biological target: Cannabinoid receptor 1 (Homo sapiens, UniProt P21554)
[7] = biological target: T3, Corticotropin-releasing factor receptor 1 (Homo sapiens, UniProt P34998)
T3 sequence (P34998 whole entry): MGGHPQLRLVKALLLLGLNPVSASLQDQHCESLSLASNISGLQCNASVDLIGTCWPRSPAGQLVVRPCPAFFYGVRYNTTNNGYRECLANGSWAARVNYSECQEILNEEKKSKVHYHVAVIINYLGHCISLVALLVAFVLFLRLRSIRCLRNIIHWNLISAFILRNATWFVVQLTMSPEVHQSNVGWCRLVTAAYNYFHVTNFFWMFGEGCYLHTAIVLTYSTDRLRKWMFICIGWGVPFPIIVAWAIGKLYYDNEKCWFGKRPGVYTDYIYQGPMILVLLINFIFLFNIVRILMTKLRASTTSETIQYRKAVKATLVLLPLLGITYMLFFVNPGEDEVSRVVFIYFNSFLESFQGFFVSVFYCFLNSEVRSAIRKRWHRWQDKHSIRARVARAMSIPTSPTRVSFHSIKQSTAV

[8] = biological target: T4, Corticotropin-releasing factor receptor 2 (Homo sapiens, UniProt Q13324)
T4 sequence (Q13324 whole entry): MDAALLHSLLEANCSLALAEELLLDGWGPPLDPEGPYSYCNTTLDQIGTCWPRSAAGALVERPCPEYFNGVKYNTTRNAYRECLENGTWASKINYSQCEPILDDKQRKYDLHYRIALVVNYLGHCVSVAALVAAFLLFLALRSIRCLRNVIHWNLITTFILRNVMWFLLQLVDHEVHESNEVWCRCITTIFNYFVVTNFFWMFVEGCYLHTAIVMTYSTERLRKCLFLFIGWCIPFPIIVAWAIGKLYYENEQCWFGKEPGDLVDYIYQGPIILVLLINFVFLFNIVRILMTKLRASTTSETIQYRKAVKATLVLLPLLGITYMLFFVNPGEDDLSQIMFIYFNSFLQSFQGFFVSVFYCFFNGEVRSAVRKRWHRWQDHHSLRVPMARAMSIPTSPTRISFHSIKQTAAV

[9] = biological target: Neurotensin receptor type 1 (Homo sapiens, UniProt P30989)
[10] = biological target: T5, Muscarinic acetylcholine receptor M2 (Homo sapiens, UniProt P08172)
T5 sequence (P08172 whole entry): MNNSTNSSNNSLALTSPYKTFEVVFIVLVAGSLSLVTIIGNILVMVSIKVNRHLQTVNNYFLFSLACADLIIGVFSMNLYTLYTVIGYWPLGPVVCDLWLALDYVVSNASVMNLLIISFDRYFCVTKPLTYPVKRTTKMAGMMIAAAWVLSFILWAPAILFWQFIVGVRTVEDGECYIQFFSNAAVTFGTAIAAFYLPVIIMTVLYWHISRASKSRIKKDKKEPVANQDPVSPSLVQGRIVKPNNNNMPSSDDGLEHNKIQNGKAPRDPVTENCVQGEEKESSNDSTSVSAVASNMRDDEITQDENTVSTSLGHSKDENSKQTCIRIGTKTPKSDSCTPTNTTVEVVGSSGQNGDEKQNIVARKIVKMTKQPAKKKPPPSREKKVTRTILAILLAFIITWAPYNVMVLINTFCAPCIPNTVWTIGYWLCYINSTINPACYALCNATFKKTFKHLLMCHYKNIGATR
Further: assay procedure not described here.

Sequence of Sodium-dependent serotonin transporter (P31645 whole entry): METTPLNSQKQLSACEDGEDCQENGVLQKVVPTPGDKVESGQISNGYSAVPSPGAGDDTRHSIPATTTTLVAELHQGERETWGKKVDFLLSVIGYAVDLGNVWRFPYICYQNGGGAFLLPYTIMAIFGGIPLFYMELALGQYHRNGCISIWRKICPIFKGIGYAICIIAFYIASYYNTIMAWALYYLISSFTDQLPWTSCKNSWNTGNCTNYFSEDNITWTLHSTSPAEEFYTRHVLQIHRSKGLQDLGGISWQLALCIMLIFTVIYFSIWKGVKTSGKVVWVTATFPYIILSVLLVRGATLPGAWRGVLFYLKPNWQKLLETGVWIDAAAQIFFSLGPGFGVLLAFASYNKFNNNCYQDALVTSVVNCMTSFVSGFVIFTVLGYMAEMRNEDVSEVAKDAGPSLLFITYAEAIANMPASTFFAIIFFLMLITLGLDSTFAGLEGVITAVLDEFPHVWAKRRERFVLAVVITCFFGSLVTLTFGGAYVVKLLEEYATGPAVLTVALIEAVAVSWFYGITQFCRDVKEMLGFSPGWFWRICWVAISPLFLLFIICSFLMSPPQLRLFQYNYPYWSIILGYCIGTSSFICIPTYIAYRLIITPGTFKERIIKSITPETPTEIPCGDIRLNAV
Sequence of Cannabinoid receptor 1 (P21554 whole entry): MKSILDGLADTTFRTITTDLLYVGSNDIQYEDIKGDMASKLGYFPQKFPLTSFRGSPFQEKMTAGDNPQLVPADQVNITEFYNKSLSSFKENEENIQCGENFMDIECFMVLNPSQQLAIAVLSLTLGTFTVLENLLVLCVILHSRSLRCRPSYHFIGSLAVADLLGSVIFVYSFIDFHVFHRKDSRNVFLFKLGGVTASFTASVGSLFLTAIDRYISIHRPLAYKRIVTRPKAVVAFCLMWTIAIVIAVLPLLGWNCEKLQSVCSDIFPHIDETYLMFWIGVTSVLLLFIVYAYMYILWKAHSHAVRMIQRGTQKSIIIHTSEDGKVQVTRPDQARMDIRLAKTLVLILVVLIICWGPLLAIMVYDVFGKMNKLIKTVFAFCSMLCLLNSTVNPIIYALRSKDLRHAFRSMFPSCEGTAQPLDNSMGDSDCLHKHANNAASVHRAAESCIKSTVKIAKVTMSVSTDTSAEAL
Sequence of Beta-3 adrenergic receptor (P13945 whole entry): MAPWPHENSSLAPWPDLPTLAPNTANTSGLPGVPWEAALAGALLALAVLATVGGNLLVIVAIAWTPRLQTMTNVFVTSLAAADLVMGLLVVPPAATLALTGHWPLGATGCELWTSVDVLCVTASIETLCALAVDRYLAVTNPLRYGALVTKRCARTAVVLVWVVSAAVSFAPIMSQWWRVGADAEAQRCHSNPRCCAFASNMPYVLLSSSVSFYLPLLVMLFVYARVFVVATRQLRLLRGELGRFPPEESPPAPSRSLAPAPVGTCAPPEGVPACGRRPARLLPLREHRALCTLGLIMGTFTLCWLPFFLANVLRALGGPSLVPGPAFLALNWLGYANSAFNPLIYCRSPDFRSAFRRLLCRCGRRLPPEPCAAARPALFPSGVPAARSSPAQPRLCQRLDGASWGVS
Sequence of Neurotensin receptor type 1 (P30989 whole entry): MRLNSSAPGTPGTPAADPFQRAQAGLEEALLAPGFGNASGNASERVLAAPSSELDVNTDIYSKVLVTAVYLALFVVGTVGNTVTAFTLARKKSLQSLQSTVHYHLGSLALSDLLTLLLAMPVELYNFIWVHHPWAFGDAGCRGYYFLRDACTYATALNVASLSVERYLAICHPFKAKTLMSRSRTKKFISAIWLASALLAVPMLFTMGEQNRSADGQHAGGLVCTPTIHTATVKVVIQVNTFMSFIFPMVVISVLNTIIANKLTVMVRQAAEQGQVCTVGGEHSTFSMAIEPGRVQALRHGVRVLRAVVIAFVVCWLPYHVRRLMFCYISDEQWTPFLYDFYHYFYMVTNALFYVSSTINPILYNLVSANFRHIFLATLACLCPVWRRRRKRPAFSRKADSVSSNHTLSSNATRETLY
Sequence of Histamine H1 receptor (P35367 whole entry): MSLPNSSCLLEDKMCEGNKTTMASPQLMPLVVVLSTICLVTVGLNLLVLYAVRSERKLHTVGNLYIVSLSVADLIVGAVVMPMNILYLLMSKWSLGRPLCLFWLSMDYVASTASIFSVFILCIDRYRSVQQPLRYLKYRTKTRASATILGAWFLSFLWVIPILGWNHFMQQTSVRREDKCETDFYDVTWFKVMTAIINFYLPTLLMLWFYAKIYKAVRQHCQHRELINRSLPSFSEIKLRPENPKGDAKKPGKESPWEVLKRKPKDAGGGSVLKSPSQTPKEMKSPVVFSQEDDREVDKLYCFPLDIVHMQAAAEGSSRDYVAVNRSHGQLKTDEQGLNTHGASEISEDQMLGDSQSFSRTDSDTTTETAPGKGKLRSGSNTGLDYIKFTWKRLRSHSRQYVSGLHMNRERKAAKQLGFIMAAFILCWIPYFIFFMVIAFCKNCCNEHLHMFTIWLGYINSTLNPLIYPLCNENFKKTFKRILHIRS

| SMILES | AC50 [1] | AC50 [2] | AC50 [3] | AC50 [4] | AC50 [5] | AC50 [6] | AC50 [7] | AC50 [8] | AC50 [9] | AC50 [10] |
| --- | --- | --- | --- | --- | --- | --- | --- | --- | --- | --- |
| CC(=N)N1CC[C@H](SC2=C(C(=O)O)N3C(=O)[C@H]([C@@H](C)O)[C@H]3C2)C1 | > 300 µM | > 300 µM | 37 µM |  |  |  |  |  |  |  |
| CC1(C)S[C@@H]2[C@H](NC(=O)[C@H](N)c3ccc(O)cc3)C(=O)N2[C@H]1C(=O)O [AMOXICILLIN] |  |  |  | > 10 µM | > 30 µM | > 30 µM | > 30 µM | > 30 µM | > 30 µM | > 10 µM |
| O=C1CN2Cc3c(ccc(Cl)c3Cl)N=C2N1 [ANAGRELIDE] | > 10 µM |  | > 30 µM | > 10 µM |  | > 10 µM |  |  |  |  |
| CO/N=C(\C(=O)N[C@@H]1C(=O)N2C(C(=O)O)=C(COC(N)=O)CS[C@H]12)c1ccco1 [CEFUROXIME] | > 30 µM |  | > 30 µM |  |  |  |  |  |  |  |
| [H]/N=C(\N/C(=N/[H])NCCCCCCNC(=N)NC(=N)Nc1ccc(Cl)cc1)Nc1ccc(Cl)cc1 [CHLORHEXIDINE] | > 10 µM |  | 1 µM | 0.607 µM |  | 3.07 µM |  |  |  |  |
| Clc1cccc(Cl)c1N=C1NCCN1 [CLONIDINE] |  |  |  |  | > 30 µM | > 10 µM | > 30 µM | > 30 µM | > 30 µM | > 10 µM |
| CN1C[C@H](C(=O)N[C@]2(C)O[C@@]3(O)[C@@H]4CCCN4C(=O)[C@H](Cc4ccccc4)N3C2=O)C[C@@H]2c3cccc4[nH]cc(c34)C[C@H]21 [DIHYDROERGOTAMINE] |  |  |  | 0.0376 µM | 0.26 µM | > 10 µM | > 30 µM | > 30 µM | > 30 µM | > 10 µM |
| CNCC[C@H](Oc1cccc2ccccc12)c1cccs1 [DULOXETINE] | 8.8 µM |  |  |  |  | > 10 µM |  |  |  |  |
| C#Cc1cccc(Nc2ncnc3cc(OCCOC)c(OCCOC)cc23)c1 [ERLOTINIB] | > 30 µM | > 30 µM |  |  |  |  |  |  |  |  |
| CC1(C)O[C@@H]2C[C@H]3[C@@H]4C[C@H](F)C5=CC(=O)C=C[C@]5(C)[C@H]4[C@@H](O)C[C@]3(C)[C@]2(C(=O)CO)O1 [FLUNISOLIDE] |  | 0.021 µM |  |  |  |  |  |  |  |  |
| CCC(=O)O[C@@H](O[P@](=O)(CCCCc1ccccc1)CC(=O)N1C[C@H](C2CCCCC2)C[C@H]1C(=O)O)C(C)C [FOSINOPRIL] | > 30 µM |  |  |  |  |  |  |  |  |  |
| Cc1cnc(NC(=O)C2=C(O)c3ccccc3S(=O)(=O)N2C)s1 [MELOXICAM] |  |  |  | > 10 µM | > 30 µM | > 10 µM | > 30 µM | > 30 µM | > 30 µM | > 10 µM |
| CC(=O)/N=c1/sc(S(N)(=O)=O)nn1C [METHAZOLAMIDE] | > 10 µM |  | > 10 µM | > 10 µM |  | > 10 µM |  |  |  |  |
| CC[C@@H](CO)NC(=O)[C@@H]1C=C2c3cccc4[nH]cc(c34)C[C@H]2N(C)C1 [METHYLERGONOVINE] |  |  |  | 12 µM |  |  |  |  |  |  |
| CC(=O)Oc1ccccc1C(=O)Nc1ncc([N+](=O)[O-])s1 [NITAZOXANIDE] | > 30 µM |  | 6.3 µM |  |  |  |  |  |  |  |
| CNCCC=C1c2ccccc2CCc2ccccc21 [NORTRIPTYLINE] |  |  |  | 0.114 µM |  |  |  |  |  | 0.632 µM |
| CN(C)c1cc(CNCC(C)(C)C)c(O)c2c1C[C@H]1C[C@H]3[C@H](N(C)C)C(O)=C(C(N)=O)C(=O)[C@@]3(O)C(O)=C1C2=O [OMADACYCLINE] | > 30 µM |  | 11 µM |  |  |  |  |  |  | 4.25 µM |
| COc1ccnc(C[S+]([O-])c2nc3ccc(OC(F)F)cc3[nH]2)c1OC (configuration not stated) [PANTOPRAZOLE] |  |  |  | 10.6 µM | > 30 µM | > 10 µM | > 30 µM | > 30 µM | > 30 µM | > 10 µM |
| CNC[C@H](O)c1cccc(O)c1 [PHENYLEPHRINE] | > 10 µM |  | > 10 µM |  |  | > 10 µM | > 30 µM | > 30 µM | > 30 µM | > 10 µM |
| NC(=O)c1ncn([C@@H]2O[C@H](CO)[C@@H](O)[C@H]2O)n1 [RIBAVIRIN] |  |  |  | > 10 µM |  | > 10 µM |  |  |  |  |
| O=C(Nc1c(Cl)cncc1Cl)c1ccc(OC(F)F)c(OCC2CC2)c1 [ROFLUMILAST] | > 30 µM |  | > 30 µM |  |  |  |  |  |  |  |
| CCCN(CCc1cccs1)[C@H]1CCc2c(O)cccc2C1 [ROTIGOTINE] |  | > 30 µM | 7.8 µM |  |  |  |  |  |  |  |
| CC[C@H]1OC(=O)[C@H](C)[C@@H](O[C@H]2C[C@@](C)(OC)[C@@H](O)[C@H](C)O2)[C@H](C)[C@@H](O[C@@H]2O[C@H](C)C[C@H](N(C)C)[C@H]2O)[C@](C)(O)C[C@@H](C)/C(=N\OCOCCOC)[C@H](C)[C@@H](O)[C@]1(C)O [ROXITHROMYCIN] |  | > 30 µM |  |  |  |  |  |  |  |  |
| CC(C)N(CCCCOCC(=O)NS(C)(=O)=O)c1cnc(-c2ccccc2)c(-c2ccccc2)n1 [SELEXIPAG] | > 30 µM |  | > 30 µM | > 10 µM |  |  |  |  |  |  |
| CCCCNc1ccc(C(=O)OCCN(C)C)cc1 [TETRACAINE] |  |  |  | > 10 µM | > 30 µM | > 10 µM | > 30 µM | > 30 µM | 9.9 µM | > 10 µM |
| Cn1c(=O)c2[nH]cnc2n(C)c1=O [THEOPHYLLINE] |  |  |  | > 10 µM |  | > 10 µM | > 30 µM | > 30 µM | > 30 µM | > 10 µM |
| CN1CCN(CCCN2c3ccccc3Sc3ccc(S(=O)(=O)N(C)C)cc32)CC1 [THIOPROPERAZINE] | 0.33 µM |  |  |  |  |  |  |  |  |  |
| CC1(C)O[C@@H]2[C@@H](CO[C@@]3(COS(N)(=O)=O)OC(C)(C)O[C@@H]23)O1 [TOPIRAMATE] | > 10 µM |  | > 10 µM | > 10 µM | > 30 µM | > 10 µM | > 30 µM | > 30 µM | > 30 µM | > 10 µM |
| Cc1cc(CC(=O)O)n(C)c1C(=O)c1ccc(Cl)cc1 [ZOMEPIRAC] | > 30 µM |  | > 30 µM |  |  |  |  |  |  |  |
